Assays:
Smn protein = Smn protein assay in cultured cells (SMN HTRF); type: cell-based, human; conditions: SMA patient fibroblast cells (GM03813), 48 hours; for maximum fold (Fold) increase of Smn protein: 7-point concentration data, relative to vehicle control; for EC1.5x for Smn protein expression: 7-point concentration curve, concentration producing 1.5 times Smn protein vs DMSO vehicle
How it was run: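 SMA patient fibroblasts, 5,000 per well in DMEM-10% FBS, exposed 48 h at 37° C. to a 7-point, 3.16-fold compound series in triplicate. RIPA lysates read by SMN HTRF (665/620 nm, overnight at room temperature); ΔF over blank expressed as fold of vehicle.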

[1] = tested on: full length SMN2 minigene mRNA containing SMN2 exon 7; test: SMN2 minigene mRNA splicing RT-qPCR assay in cultured cells; type: cell-based, human; conditions: Homo sapiens, HEK293-H; HEK293H cells stably transfected with SMN2-A minigene, 24 hours, 7-point concentration curve; concentration giving 1.5-fold full length SMN2 mRNA vs vehicle; read-out: EC1.5x for production of full length SMN2 mRNA
How it was run: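 HEK293H cells stably carrying SMN2-A minigene treated 24 h (37 °C) with compound, 7-point 3.16-fold dilution, duplicates. Multiplex RT-qPCR on lysate with exon 7/luciferase primers and exon 7–8 junction probe (minigene-specific). Full-length transcript normalised to GAPDH by modified ΔΔCt, expressed relative to vehicle-treated cells.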

Row | melting point [°C] | Compound | maximum fold (Fold) increase of Smn protein (Smn protein) | EC (1.5-fold) [1] [µM] | EC1.5x for Smn protein expression (Smn protein)
1 | 294 to 296 | Cc1cn2cc(-c3cc4ccc(N5CCN(C6COC6)CC5)cc4c(=O)o3)nc2c(C)n1 [Cpd 97, 3-(6,8-dimethylimidazo[1,2-a]pyrazin-2-yl)-7-[4-(oxetan-3-yl)piperazin-1-yl]-1H-isochromen-1-one] | *** (a fold increase between >1.35 and ≦1.5 is indicated by three stars (***)) | 1 to 3 | –
2 | 221 to 226 | Cc1nc(Cl)cn2cc(-c3cc4ccc(N5CCNCC5)cc4c(=O)o3)nc12 [Cpd 99, 3-(6-chloro-8-methylimidazo[1,2-a]pyrazin-2-yl)-7-(piperazin-1-yl)-1H-isochromen-1-one] | ***** (a fold increase >1.65 is indicated by five stars (*****)) | ≤ 0.1 | *** (an EC1.5× between >0.3 nM and ≦1 nM is indicated by three stars (***))
3 | 291 to 296 | Cc1nc(Cl)cn2cc(-c3cc4ccc(N5CCN(C)CC5)cc4c(=O)o3)nc12 [Cpd 100, 3-(6-chloro-8-methylimidazo[1,2-a]pyrazin-2-yl)-7-(4-methylpiperazin-1-yl)-1H-isochromen-1-one] | ***** (a fold increase >1.65 is indicated by five stars (*****)) | ≤ 0.1 | *** (an EC1.5× between >0.3 nM and ≦1 nM is indicated by three stars (***))
4 | 286 to 291 | Cc1nc(Cl)cn2cc(-c3cc4ccc(N5CCN(C(C)C)CC5)cc4c(=O)o3)nc12 [Cpd 101, 3-(6-chloro-8-methylimidazo[1,2-a]pyrazin-2-yl)-7-[4-(propan-2-yl)piperazin-1-yl]-1H-isochromen-1-one] | ***** (a fold increase >1.65 is indicated by five stars (*****)) | 0.1 to 0.3 | *** (an EC1.5× between >0.3 nM and ≦1 nM is indicated by three stars (***))
5 | 229 to 234 | CCN1CCN(c2ccc3cc(-c4cn5cc(Cl)nc(C)c5n4)oc(=O)c3c2)CC1 [Cpd 102, 3-(6-chloro-8-methylimidazo[1,2-a]pyrazin-2-yl)-7-(4-ethylpiperazin-1-yl)-1H-isochromen-1-one] | *** (a fold increase between >1.35 and ≦1.5 is indicated by three stars (***)) | 0.1 to 0.3 | –
6 | 271 to 276 | Cc1nc2ccc(-c3cc4ccc(N5CCNCC5)cc4c(=O)o3)cc2s1 [Cpd 103, 3-(2-methyl-1,3-benzothiazol-6-yl)-7-(piperazin-1-yl)-1H-isochromen-1-one] | **** (a fold increase between >1.5 and ≦1.65 is indicated by four stars (****)) | ≤ 0.1 | **** (an EC1.5×≦0.3 nM is indicated by four stars (****))
7 | 231 to 236 | Cc1nc2ccc(-c3cc4ccc(N5CCN(C)CC5)cc4c(=O)o3)cc2s1 [Cpd 104, 3-(2-methyl-1,3-benzothiazol-6-yl)-7-(4-methylpiperazin-1-yl)-1H-isochromen-1-one] | *** (a fold increase between >1.35 and ≦1.5 is indicated by three stars (***)) | 0.1 to 0.3 | –
8 | 222 to 228 | Cc1nc2ccc(-c3cc4ccc(N5CCN(C(C)C)CC5)cc4c(=O)o3)cc2s1 [Cpd 105, 3-(2-methyl-1,3-benzothiazol-6-yl)-7-[4-(propan-2-yl)piperazin-1-yl]-1H-isochromen-1-one] | ** (a fold increase between >1.2 and ≦1.35 is indicated by two stars (**)) | 0.1 to 0.3 | –
9 | 229 to 235 | Cc1nc2cc(-c3cc4ccc(N5CCNCC5)cc4c(=O)o3)ccc2s1 [Cpd 106, 3-(2-methyl-1,3-benzothiazol-5-yl)-7-(piperazin-1-yl)-1H-isochromen-1-one] | * (A maximum fold increase of ≦1.2 is indicated by one star (*)) | 1 to 3 | –
10 | 222 to 228 | Cc1nc2ccc(-c3cc4ccc(N5CCN(C6COC6)CC5)cc4c(=O)o3)cc2s1 [Cpd 107, 3-(2-methyl-1,3-benzothiazol-6-yl)-7-[4-(oxetan-3-yl)piperazin-1-yl]-1H-isochromen-1-one] | *** (a fold increase between >1.35 and ≦1.5 is indicated by three stars (***)) | 0.3 to 1 | –
11 | 251 to 258 | Cc1nc(Cl)cn2cc(-c3cc4ccc(N5CCN[C@@H](C)C5)cc4c(=O)o3)nc12 [Cpd 108, 3-(6-chloro-8-methylimidazo[1,2-a]pyrazin-2-yl)-7-[(3S)-3-methylpiperazin-1-yl]-1H-isochromen-1-one] | ***** (a fold increase >1.65 is indicated by five stars (*****)) | ≤ 0.1 | **** (an EC1.5×≦0.3 nM is indicated by four stars (****))
12 | 251 to 258 | Cc1nc(Cl)cn2cc(-c3cc4ccc(N5CCN[C@H](C)C5)cc4c(=O)o3)nc12 [Cpd 109, 3-(6-chloro-8-methylimidazo[1,2-a]pyrazin-2-yl)-7-[(3R)-3-methylpiperazin-1-yl]-1H-isochromen-1-one] | ***** (a fold increase >1.65 is indicated by five stars (*****)) | ≤ 0.1 | *** (an EC1.5× between >0.3 nM and ≦1 nM is indicated by three stars (***))
13 | 261 to 266 | Cc1nc(Cl)cn2cc(-c3cc4ccc(N5C[C@@H](C)N[C@@H](C)C5)cc4c(=O)o3)nc12 [Cpd 110, 3-(6-chloro-8-methylimidazo[1,2-a]pyrazin-2-yl)-7-[(3R,5S)-3,5-dimethylpiperazin-1-yl]-1H-isochromen-1-one] | **** (a fold increase between >1.5 and ≦1.65 is indicated by four stars (****)) | 0.3 to 1 | *** (an EC1.5× between >0.3 nM and ≦1 nM is indicated by three stars (***))
14 | 271 to 276 | Cc1nc(Cl)cn2cc(-c3cc4ccc(N5CCN(C)[C@H](C)C5)cc4c(=O)o3)nc12 [Cpd 111, 3-(6-chloro-8-methylimidazo[1,2-a]pyrazin-2-yl)-7-[(3R)-3,4-dimethylpiperazin-1-yl]-1H-isochromen-1-one] | ***** (a fold increase >1.65 is indicated by five stars (*****)) | 0.1 to 0.3 | *** (an EC1.5× between >0.3 nM and ≦1 nM is indicated by three stars (***))
15 | 270 to 275 | Cc1nc(Cl)cn2cc(-c3cc4ccc(N5CCN(C)[C@@H](C)C5)cc4c(=O)o3)nc12 [Cpd 112, 3-(6-chloro-8-methylimidazo[1,2-a]pyrazin-2-yl)-7-[(3S)-3,4-dimethylpiperazin-1-yl]-1H-isochromen-1-one] | ***** (a fold increase >1.65 is indicated by five stars (*****)) | 1 to 3 | ** (an EC1.5× between >1 μM, and ≦3 nM is indicated by two stars (**))
16 | 248 to 250 | Cc1cn2cc(-c3cc4ccc(C5CCN(C)CC5)cc4c(=O)o3)nc2c(C)n1 [Cpd 114, 3-(6,8-dimethylimidazo[1,2-a]pyrazin-2-yl)-7-(1-methylpiperidin-4-yl)-1H-isochromen-1-one] | ***** (a fold increase >1.65 is indicated by five stars (*****)) | ≤ 0.1 | **** (an EC1.5×≦0.3 nM is indicated by four stars (****))
17 | 215 to 217 | CCN1CCC(c2ccc3cc(-c4cn5cc(C)nc(C)c5n4)oc(=O)c3c2)CC1 [Cpd 115, 3-(6,8-dimethylimidazo[1,2-a]pyrazin-2-yl)-7-(1-ethylpiperidin-4-yl)-1H-isochromen-1-one] | ***** (a fold increase >1.65 is indicated by five stars (*****)) | ≤ 0.1 | **** (an EC1.5×≦0.3 nM is indicated by four stars (****))
18 | 204 to 206 | CCCN1CCC(c2ccc3cc(-c4cn5cc(C)nc(C)c5n4)oc(=O)c3c2)CC1 [Cpd 116, 3-(6,8-dimethylimidazo[1,2-a]pyrazin-2-yl)-7-(1-propylpiperidin-4-yl)-1H-isochromen-1-one] | **** (a fold increase between >1.5 and ≦1.65 is indicated by four stars (****)) | ≤ 0.1 | *** (an EC1.5× between >0.3 nM and ≦1 nM is indicated by three stars (***))

Row | Compound | melting point [°C] | maximum fold (Fold) increase of Smn protein (Smn protein) | EC (1.5-fold) [1] [µM] | EC1.5x for Smn protein expression (Smn protein)
19 | Cc1cn2cc(-c3cc4ccc(C5=CCN(C6COC6)CC5)cc4c(=O)o3)nc2c(C)n1 [Cpd 98, 3-(6,8-dimethylimidazo[1,2-a]pyrazin-2-yl)-7-[1-(oxetan-3-yl)-1,2,3,6-tetrahydropyridin-4-yl]-1H-isochromen-1-one] | 253 to 255 | ***** (a fold increase >1.65 is indicated by five stars (*****)) | ≤ 0.1 | *** (an EC1.5× between >0.3 nM and ≦1 nM is indicated by three stars (***))
20 | Cc1nc(Cl)cn2cc(-c3cc4ccc(C5=CCNCC5)cc4c(=O)o3)nc12 [Cpd 113, 3-(6-chloro-8-methylimidazo[1,2-a]pyrazin-2-yl)-7-(1,2,3,6-tetrahydropyridin-4-yl)-1H-isochromen-1-one] | 269 to 273 | **** (a fold increase between >1.5 and ≦1.65 is indicated by four stars (****)) | ≤ 0.1 | ** (an EC1.5× between >1 μM, and ≦3 nM is indicated by two stars (**))
